Like-named read-outs stand apart in the source and are kept apart here.
Experiments:
[1] = organic solvents such as toluene; cited from earlier work
[2] = test system: 26-10 Fab; assay type: binding, murine
Experimental: (§1) After the plates were washed and blocked with 1% horse serum in PBSA, solutions ([…]) containing 26-10 Fab or the BABS in either PBSA or 0.01 M sodium acetate at pH 5.5 were added to the wells and incubated 2-3 hrs at room temperature.

[3] = test system: BABS; experiment: Radioimmunoassay, inhibition of 125I-digoxin binding to BABS by cardiac glycosides; design: species or system murine
Experimental: as §1

[4] = test system: biosynthetic protein (FB-sFv 26-10); experiment: Inhibition of 125I-dig-lysine binding by unlabelled cardiac glycosides; design: species or system murine; settings: unlabelled glycoside; compared with parent 26-10 Fab
Excerpt: Properties of the binding site were probed by a modification of an assay developed by Mudgett-Hunter et al. (J. Immunol. (1982) 129:1165-1172; Molec. Immunol. (1985) 22:477-488), so that it could be run on microtiter plates as a solid phase sandwich assay. Binding data were collected using goat anti-murine Fab antisera (gAmFab) as the primary antibody that initially coats the wells of the plate. These are polyclonal antisera which recognize epitopes that appear to reside mostly on framework regions.
These are polyclonal antisera which recognize epitopes that appear to reside mostly on framework regions.

[5] = Oleandrin transport through supported liquid membrane without binding protein; settings: absence of binding protein
Excerpt: (§2) A hollow fiber device was constructed using 100×17.8 cm PAN fibers, produced by Sepracor, Inc., Marlborough, Mass. Each PAN fiber is a tubular membrane having a wall thickness of 50 μm and an internal diameter of 205 μm. Thus, this device contains a geometric surface area of 115 cm^2 of PAN fiber. The associated fluid handling equipment comprised two peristaltic pumps, one for the shell loop and one for the luman loop, a pressure gauge on the shell loop for determining the pressure drop from the shell side to the lumen side, and a throttling valve for creating a positive pressure on the shell side.
The device was first washed with 1 L of water. This washing involved convecting water through the lumen, through the shell, and through the PAN fibers from shell-side to lumen.
Following the washing procedure, the liquid membrane was put in place. A buffer solution of the same composition as that in which the FB-sFv protein was dissolved (50 mM sodium chloride) was pumped through the fibers, from the shell-side to the lumen. Approximately 100 mls of buffer solution were convected through the fibers. […]
Oleandrin is a cardiac glycoside having a molecular weight of 576, and an organic to aqueous partition coefficient between 1-octanol and water of 338 (Cohnen et al, Drug Res. 28 (II), Heft 12, 1978). […] The quantity of oleandrin contained in each lumen reservoir sample was determined by HPLC.

[6] = test system: FB-sFv 26-10; experiment: Oleandrin facilitated transport through supported liquid membrane containing FB-sFv 26-10; design: species or system murine
Excerpt: as §2
The fluid loops were then drained. 100 mls of buffer containing 10.0 mgs of FB-sFv 26-10 produced as disclosed above were then slowly ultrafiltered from the shell loop at a pressure of 10 psi. […] After this time, no bulk fluid, either aqueous or organic, was present in either loop. […] Since an optical density of 1.0 at 280 nm indicates a protein concentration of 1.0 mg/ml, the filtrate contained 4.0 mgs protein. 6.0 mgs of FB-sFv 26-10 were therefore assumed to be contained in the supported liquid membrane.
Octanol saturated with buffer, but not containing oleandrin, was then convected through each loop, with the 10 psi pressure differential across the supported liquid membrane. Once uninterrupted convection through each loop was established, the shell loop reservoir was replaced with a reservoir containing 500 mls of octanol saturated with buffer, and containing 2.0 mg/ml oleandrin. The lumen reservoir was replaced with a reservoir containing 50 mls of buffer saturated octanol, containing no oleandrin. Over a 24 hour period, no convective flow of octanol through the supported liquid membrane occurred.
During this period, successive 1 ml samples of the lumen reservoir were taken. In order not to disturb the volume of the lumen reservoir, the octanol taken in each sample was replaced with 1 ml of buffer saturated octanol after drawing each sample. The quantity of oleandrin contained in each lumen reservoir sample was determined by HPLC.

[7] = Partition coefficient of oleandrin; assay type: physicochemical; settings: 1-octanol and water; read-out: aqueous to organic coefficient S
[8] = 1-octanol and water; cited from earlier work
[9] = normalizing glycoside digoxigenin

| Compound | solubility in organic solvents [1] | normalized concentration of inhibitor giving 50% inhibition of 125I-digoxin binding [2, 9] | normalized concentration of inhibitor giving 50% inhibition of 125I-digoxin binding ([2]; normalizing glycoside digoxin) | normalized concentration of inhibitor giving 50% inhibition of 125I-digoxin binding [3, 9] | normalized concentration of inhibitor giving 50% inhibition of 125I-digoxin binding ([3]; normalizing glycoside digoxin) | inhibition of binding of 125I-dig-lysine [4] | first order polynomial (slope) of change in oleandrin concentration [5] | initial flux of oleandrin ([6]; BABS-containing membrane) | average flux of oleandrin ([6]; BABS-containing membrane, 24-hour) | first order polynomial (slope) of change in oleandrin concentration ([6]; presence of binding protein, time zero) | initial increase of oleandrin flux ([6]; with vs without 26-10 protein) | aqueous to organic partition coefficient [7] | organic to aqueous partition coefficient [8] |
| --- | --- | --- | --- | --- | --- | --- | --- | --- | --- | --- | --- | --- | --- |
| CCOC(=O)C(C)c1ccc2cc(OC)ccc2c1 (racemic) [racemic ethyl ester of naproxen, ethyl ester of naproxen] | to the extent of moles per liter | – | – | – | – | – | – | – | – | – | – | – | – |
| CC(=O)OC1CCC2(C=O)C3CCC4(C)C(C5=CC(=O)OC5)CCC4(O)C3CCC2(O)C1 (centres unmarked) [Acetyl Strophanthidin, acetyl strophanthidin] | – | 1.1 | 1.3 | 0.8 | 5.9 | can be inhibited | – | – | – | – | – | – | – |
| C[C@]12CC[C@H](O)C[C@H]1CC[C@@H]1[C@@H]2CC[C@]2(C)[C@@H](C3=CC(=O)OC3)CC[C@]12O [Digitoxigenin, digitoxigenin] | – | 0.9 | 1.0 | 0.4 | 2.6 | can be inhibited | – | – | – | – | – | – | – |
| C[C@H]1O[C@@H](O[C@H]2[C@@H](O)C[C@H](O[C@H]3[C@@H](O)C[C@H](O[C@H]4CC[C@@]5(C)[C@H](CC[C@@H]6[C@@H]5CC[C@]5(C)[C@@H](C7=CC(=O)OC7)CC[C@]65O)C4)O[C@@H]3C)O[C@@H]2C)C[C@H](O)[C@@H]1O [Digitoxin, digitoxin] | – | 0.8 | 0.9 | 0.3 | 2.0 | can be inhibited | – | – | – | – | – | – | – |
| C[C@]12CC[C@H](O)C[C@H]1CC[C@@H]1[C@@H]2C[C@@H](O)[C@]2(C)[C@@H](C3=CC(=O)OC3)CC[C@]12O [Digoxigenin, digoxigenin] | – | 1.0 | 1.2 | 1.0 | 7.3 | can be inhibited | – | – | – | – | – | – | – |
| C[C@H]1O[C@@H](O[C@H]2[C@@H](O)C[C@H](O[C@H]3[C@@H](O)C[C@H](O[C@H]4CC[C@@]5(C)[C@H](CC[C@@H]6[C@@H]5C[C@@H](O)[C@]5(C)[C@@H](C7=CC(=O)OC7)CC[C@]65O)C4)O[C@@H]3C)O[C@@H]2C)C[C@H](O)[C@@H]1O [Digoxin, digoxin] | – | 0.9 | 1.0 | 0.1 | 1.0 | can be inhibited | – | – | – | – | – | – | – |
| C[C@H]1O[C@@H](O[C@H]2[C@@H](O)C[C@H](O[C@H]3[C@@H](O)C[C@H](O[C@H]4CC[C@@]5(C)[C@H](CC[C@@H]6[C@@H]5CC[C@]5(C)[C@@H](C7=CC(=O)OC7)[C@@H](O)C[C@]65O)C4)O[C@@H]3C)O[C@@H]2C)C[C@H](O)[C@@H]1O [Gitoxin, gitoxin] | – | 8.1 | 9.6 | 8.5 | 62 | can be inhibited | – | – | – | – | – | – | – |
| CO[C@H]1C[C@H](O[C@H]2CC[C@@]3(C)[C@H](CC[C@@H]4[C@@H]3CC[C@]3(C)[C@@H](C5=CC(=O)OC5)[C@@H](OC(C)=O)C[C@]43O)C2)O[C@@H](C)[C@@H]1O [Oleandrin, oleandrin] | – | – | – | – | – | can be inhibited | 0.0023 mg/mL/h | 4.9×10^-12 gmole/sec-cm^2 | 2.9×10^-12 gmole/sec-cm^2 | 0.0215 mg/mL/h | 9.3 fold | ~0.003 | 338 |
| C[C@@H]1O[C@@H](O[C@H]2C[C@@H](O)[C@]3(CO)[C@H]4[C@H](O)C[C@]5(C)[C@@H](C6=CC(=O)OC6)CC[C@]5(O)[C@@H]4CC[C@]3(O)C2)[C@H](O)[C@H](O)[C@H]1O [Ouabain, ouabain] | – | 13 | 15 | 21 | 150 | can be inhibited | – | – | – | – | – | – | – |
